From PubChem BioAssay AID256 (DTP/NCI, 2004)
Toxic doses and inconclusive results are not listed. How the source made its calls: active means survival T/C of 150% or more; inactive means T/C below 125% in these data.

System: CD2F1 mice, L1210 leukemia ip, survival T/C
Test: NCI In Vivo Anticancer Drug Screen. Data for tumor model L1210 Leukemia (intraperitoneal) in CD2F1 (CDF1) mice
Settings: higher = longer survival
Outline: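 Implant tumor; dose compound or vehicle; measure endpoint in both groups; report treated divided by control.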

[1] = endpoint: mean survival time, dose: 100.0 mg/kg/injection, schedule: Q01DX009 (ip), vehicle: saline with Tween-80
[2] = endpoint: mean survival time, dose: 200.0 mg/kg/injection, schedule: Q01DX009 (ip), vehicle: saline with Tween-80
[3] = endpoint: mean survival time, dose: 400.0 mg/kg/injection, schedule: Q01DX009 (ip), vehicle: saline with Tween-80
[4] = endpoint: mean survival time, dose: 50.0 mg/kg/injection, schedule: Q01DX009 (ip), vehicle: saline with Tween-80
[5] = endpoint: mean survival time, dose: 100.0 mg/kg/injection, schedule: Q01DX009 (ip), vehicle: saline
[6] = endpoint: mean survival time, dose: 100.0 mg/kg/injection, schedule: Q04DX003 (ip), vehicle: saline with Tween-80
[7] = endpoint: mean survival time, dose: 200.0 mg/kg/injection, schedule: Q04DX003 (ip), vehicle: saline with Tween-80
[8] = endpoint: mean survival time, dose: 400.0 mg/kg/injection, schedule: Q04DX003 (ip), vehicle: saline with Tween-80
[9] = endpoint: mean survival time, dose: 100.0 mg/kg/injection, schedule: Q04DX002 (ip), vehicle: saline with Tween-80
[10] = endpoint: mean survival time, dose: 200.0 mg/kg/injection, schedule: Q04DX002 (ip), vehicle: saline with Tween-80
[11] = endpoint: mean survival time, dose: 400.0 mg/kg/injection, schedule: Q04DX002 (ip), vehicle: saline with Tween-80
[12] = endpoint: mean survival time, dose: 100.0 mg/kg/injection, schedule: Q04DX003 (ip), vehicle: saline

Measured: T/C

CC1CCCC(C)N1C1=NCCO1 (configuration not stated)
inactive: endpoint: mean survival time, dose: 5.0 mg/kg/injection, schedule: Q04DX003 (ip), vehicle: saline 102 % of control | endpoint: mean survival time, dose: 10.0 mg/kg/injection, schedule: Q04DX003 (ip), vehicle: saline 97 % of control | endpoint: mean survival time, dose: 20.0 mg/kg/injection, schedule: Q04DX003 (ip), vehicle: saline 94 % of control

COC(=O)c1ncn(C2OC(CO)C(O)C2O)n1 (configuration not stated)
inactive: endpoint: median survival time, dose: 8.75 mg/kg/injection, schedule: Q01DX005 (ip), vehicle: water 100 % of control | endpoint: median survival time, dose: 17.5 mg/kg/injection, schedule: Q01DX005 (ip), vehicle: water 96 % of control | endpoint: median survival time, dose: 35.0 mg/kg/injection, schedule: Q01DX005 (ip), vehicle: water 97 % of control | endpoint: median survival time, dose: 70.0 mg/kg/injection, schedule: Q01DX005 (ip), vehicle: water 97 % of control | endpoint: median survival time, dose: 140.0 mg/kg/injection, schedule: Q01DX005 (ip), vehicle: water 100 % of control

O/N=C1/CCCC/C1=C/c1ccccc1
inactive: [1] 103 % of control | [2] 97 % of control | [3] 97 % of control

O=C1CSC(=S)N1/N=C/c1ccc(F)cc1
inactive: endpoint: mean survival time, dose: 75.0 mg/kg/injection, schedule: Q01DX001 (ip), vehicle: other 100 % of control | endpoint: mean survival time, dose: 150.0 mg/kg/injection, schedule: Q01DX001 (ip), vehicle: other 102 % of control | endpoint: mean survival time, dose: 300.0 mg/kg/injection, schedule: Q01DX001 (ip), vehicle: other 98 % of control

CC/C=C/CCOC(=N)C(Cl)(Cl)Cl
inactive: [4] 92 % of control | [1] 92 % of control | [2] 101 % of control

N[C@@H](Cc1c[nH]c2ccccc12)C(=O)Nc1nncs1
inactive: endpoint: median survival time, dose: 8.35 mg/kg/injection, schedule: Q03HX027 (ip), vehicle: saline 96 % of control | endpoint: median survival time, dose: 16.7 mg/kg/injection, schedule: Q03HX027 (ip), vehicle: saline 100 % of control | endpoint: median survival time, dose: 33.4 mg/kg/injection, schedule: Q03HX027 (ip), vehicle: saline 103 % of control | endpoint: median survival time, dose: 47.88 mg/kg/injection, schedule: Q03HX027 (ip), vehicle: saline 107 % of control | endpoint: median survival time, dose: 48.0 mg/kg/injection, schedule: Q03HX027 (ip), vehicle: saline 108 % of control | endpoint: median survival time, dose: 50.0 mg/kg/injection, schedule: Q01DX009 (ip), vehicle: saline 98 % of control | endpoint: median survival time, dose: 66.7 mg/kg/injection, schedule: Q03HX027 (ip), vehicle: saline 103 % of control | endpoint: median survival time, dose: 79.8 mg/kg/injection, schedule: Q03HX027 (ip), vehicle: saline 113 % of control | endpoint: median survival time, dose: 79.92 mg/kg/injection, schedule: Q03HX027 (ip), vehicle: saline 113 % of control | endpoint: median survival time, dose: 100.0 mg/kg/injection, schedule: Q01DX009 (ip), vehicle: saline 97 % of control | endpoint: median survival time, dose: 133.2 mg/kg/injection, schedule: Q03HX027 (ip), vehicle: saline 116 % of control | endpoint: median survival time, dose: 200.0 mg/kg/injection, schedule: Q01DX009 (ip), vehicle: saline 105 % of control | endpoint: median survival time, dose: 222.0 mg/kg/injection, schedule: Q03HX027 (ip), vehicle: saline 116 % of control | endpoint: median survival time, dose: 369.45 mg/kg/injection, schedule: Q03HX027 (ip), vehicle: saline 87 % of control | endpoint: median survival time, dose: 400.0 mg/kg/injection, schedule: Q01DX009 (ip), vehicle: saline 120 % of control

CCCC(O)C[N+](=O)[O-] (configuration not stated)
inactive: [5] 104 % of control | endpoint: mean survival time, dose: 200.0 mg/kg/injection, schedule: Q01DX009 (ip), vehicle: saline 111 % of control

Cc1cc(N=Nc2ccccc2)cc(C)c1N
inactive: [1] 96 % of control | [6] 97 % of control | [2] 102 % of control | [7] 98 % of control | [3] 98 % of control | [8] 110 % of control

COc1ccc([N+](=O)[O-])cc1NC(=O)Nc1cccc(Cl)c1
inactive: [9] 91 % of control | [10] 97 % of control | [11] 91 % of control

O=c1ssc2ccccc12
inactive: [6] 101 % of control | [7] 101 % of control | [8] 98 % of control

O=c1[nH]c2cc(Br)ccc2c2ccc(Br)cc12
inactive: endpoint: mean survival time, dose: 50.0 mg/kg/injection, schedule: Q01DX001 (ip), vehicle: carboxymethylcellulose (CMC) 95 % of control | endpoint: mean survival time, dose: 100.0 mg/kg/injection, schedule: Q01DX001 (ip), vehicle: carboxymethylcellulose (CMC) 98 % of control | endpoint: mean survival time, dose: 200.0 mg/kg/injection, schedule: Q01DX001 (ip), vehicle: carboxymethylcellulose (CMC) 101 % of control | endpoint: mean survival time, dose: 400.0 mg/kg/injection, schedule: Q01DX001 (ip), vehicle: carboxymethylcellulose (CMC) 104 % of control

CC(C)C1CCC(C)(Cl)C2CCC(C)(Cl)CC12 (configuration not stated)
inactive: [6] 96 % of control | [12] 104 % of control | [7] 91 % of control | endpoint: mean survival time, dose: 200.0 mg/kg/injection, schedule: Q04DX003 (ip), vehicle: saline 102 % of control | [8] 93 % of control | endpoint: mean survival time, dose: 400.0 mg/kg/injection, schedule: Q04DX003 (ip), vehicle: saline 95 % of control

CC1(C)CC2(OC2c2ccccc2[N+](=O)[O-])C(=O)c2ccccc21 (configuration not stated)
inactive: [1] 98 % of control | [6] 96 % of control | [2] 96 % of control | [7] 98 % of control | [3] 96 % of control | [8] 91 % of control

CCCCCCCCCCCCCCCC(=O)N(CCCN(C)C)C1CCC(N(CCCN(C)C)C(=O)CCCCCCCCCCCCCCC)CC1 (configuration not stated)
inactive: endpoint: mean survival time, dose: 12.5 mg/kg/injection, schedule: Q01DX009 (ip), vehicle: saline with Tween-80 101 % of control | endpoint: mean survival time, dose: 12.5 mg/kg/injection, schedule: Q04DX003 (ip), vehicle: saline with Tween-80 93 % of control | endpoint: mean survival time, dose: 25.0 mg/kg/injection, schedule: Q04DX003 (ip), vehicle: saline with Tween-80 111 % of control | endpoint: mean survival time, dose: 50.0 mg/kg/injection, schedule: Q04DX003 (ip), vehicle: saline with Tween-80 102 % of control

COc1cc(OC)c(NC(=O)Oc2ccc(NC(C)=O)cc2)cc1Cl
inactive: [4] 88 % of control | [1] 96 % of control

O=C(O)CC1CCCCCCCCCCC1=O (configuration not stated)
inactive: [9] 98 % of control | [10] 91 % of control | [11] 98 % of control

CCN(CC)CCCC(C)Nc1ncnc(N)c1[N+](=O)[O-] (configuration not stated)
inactive: endpoint: mean survival time, dose: 25.0 mg/kg/injection, schedule: Q01DX009 (ip), vehicle: saline 103 % of control | endpoint: mean survival time, dose: 25.0 mg/kg/injection, schedule: Q04DX003 (ip), vehicle: saline 106 % of control | endpoint: mean survival time, dose: 50.0 mg/kg/injection, schedule: Q01DX009 (ip), vehicle: saline 92 % of control | endpoint: mean survival time, dose: 50.0 mg/kg/injection, schedule: Q04DX003 (ip), vehicle: saline 111 % of control | [5] 95 % of control | [12] 104 % of control
